# Measured values: paper PMC9705314, “Characterization of a new potent and long-lasting single chain peptide agonist of RXFP1 in cells and in vivo translational models” (Scientific Reports, 2022)
# *1 amine or outer side, *2 acyl side, *3 side chain or, on linkers, in order; H or OH if unused. Where a SMILES comes first, the peptide text is derived from it. Side-chain parts run from the residue outwards. [ ]: non-standard residue; d: D form. The star is where a group is joined. γGlu = O=C(O)[C@H](CCC(=O)[*:2])N[*:1]; Stearoyl = CCCCCCCCCCCCCCCCCC(=O)*; Nle = CCCC[C@H](N)C(=O)O; AEEA = NCCOCCOCC(=O)O; Aib = CC(C)(N)C(=O)O
# Experiments:
# [1] = Pharmacokinetics in Sprague-Dawley rats; type: in vivo, rat; details: for T1/2 (apparent terminal half-life): 1 mg/kg; for CL / AUXext: IV 1 mg/kg
# Procedure: Sprague Dawley rats (10–12 weeks old) obtained from Charles Rivers Laboratories (Como, Iltaly) were dosed with study peptide at 1 mg/kg IV and 3 mg/kg SC as a solution in PBS (0.2 mg/mL and 0.6 mg/mL respectively). Blood samples were collected from individual animals at the following time points: 0.083, 0.25, 0.5, 1, 3, 6, 8, 24, 48 and 72 h (IV route) and 0.25, 0.5, 1, 2, 4, 8, 12, 24, 48 and 72 h (SC route). All samples, collected into K3-EDTA tubes, were centrifuged and plasma was harvested and stored at − 80 °C until analysis. Two hundred μL of 0.1% formic acid in methanol containing 10 ng/mL warfarin as internal standard were added to 50 μL of standard, QC and PK study samples to obtain the protein precipitation. Each sample was vortexed and centrifuged, for 20 min, at 17,000 rcf at 4 °C. Ten microliters of the extracted plasma samples were injected onto the column. Chromatographic separation was performed on an Ultimate 3000 (Thermo Scientific) chromatography system using an XSelect Peptide CSH C18, (50 mm × 2.1 mm I.D., 2.5 μm, 130 Å; Waters Corporation) with a flow rate of 0.500 mL/min at 60 °C and a two-solvent linear gradient system. Solvents A (water) and B (acetonitrile) contained both 0.1% formic acid. […] The Ultimate 3000 was coupled to an Orbitrap QExactive™ mass spectrometer (Thermo Scientific) in positive mode. Quantitation was performed in full scan. The optimized source parameters were as follows: ion spray voltage 2.9 kV, sheath gas flow 50 a.u., aux gas flow 15 a.u., aux T 300 °C, capillary T 320 °C, S-lens RF level 50%. Full MS parameters were as follows: mass range 150–2000, AGC target 1 × 10^6, max injection time 250 ms, resolution 70,000 (FWHM @ 200 m/z). Data processing was performed using Xcalibur 3.0 (Thermo Scientific). Ion current of the [M + 5H]5 + of the SA10SC-RLX was extracted with 5 ppm window for quantitation (814.47219 m/z). A calibration curve with 12 standard points was prepared freshly on the day of analysis by spiking appropriate amounts of an intermediate working standard solution into blank rat plasma and ranged from 1.22 to 20,000 ng/mL (0.30–4910 nM). Three QC samples, each at six concentration levels from 5.0 to 15,000 ng/mL (1.22–3690 nM), were used for all analyses. Calibration curves were prepared by plotting the analyte to internal standard peak area ratio versus concentration. Calibration standards were fit by linear regression with 1/x^2 weighting. QC samples (n = 3) were used at six concentration levels. Accepted calibration curve contained minimum 7 concentration levels within ± 20% of nominal. Accepted QCs were within ± 25% of nominal. PK parameters were calculated by non-compartmental analysis using Watson LIMS 7.5.
# RXFP1 = biological target: T1, RXFP1 (Rattus norvegicus, UniProt Q6R6I6); experiment: Telemetry (heart rate) in conscious SD rats; type: in vivo; details: conscious telemetered SD rats, single iv relaxin 1, 3 and 10 µg/kg, n = 5/group
# T1 construct: measured in conscious telemetered SD rats; tissue Charles River Laboratories; host or cells: whole animal, male Sprague Dawley rats (heart; renal vasculature)
# T1 sequence (Q6R6I6 1-758): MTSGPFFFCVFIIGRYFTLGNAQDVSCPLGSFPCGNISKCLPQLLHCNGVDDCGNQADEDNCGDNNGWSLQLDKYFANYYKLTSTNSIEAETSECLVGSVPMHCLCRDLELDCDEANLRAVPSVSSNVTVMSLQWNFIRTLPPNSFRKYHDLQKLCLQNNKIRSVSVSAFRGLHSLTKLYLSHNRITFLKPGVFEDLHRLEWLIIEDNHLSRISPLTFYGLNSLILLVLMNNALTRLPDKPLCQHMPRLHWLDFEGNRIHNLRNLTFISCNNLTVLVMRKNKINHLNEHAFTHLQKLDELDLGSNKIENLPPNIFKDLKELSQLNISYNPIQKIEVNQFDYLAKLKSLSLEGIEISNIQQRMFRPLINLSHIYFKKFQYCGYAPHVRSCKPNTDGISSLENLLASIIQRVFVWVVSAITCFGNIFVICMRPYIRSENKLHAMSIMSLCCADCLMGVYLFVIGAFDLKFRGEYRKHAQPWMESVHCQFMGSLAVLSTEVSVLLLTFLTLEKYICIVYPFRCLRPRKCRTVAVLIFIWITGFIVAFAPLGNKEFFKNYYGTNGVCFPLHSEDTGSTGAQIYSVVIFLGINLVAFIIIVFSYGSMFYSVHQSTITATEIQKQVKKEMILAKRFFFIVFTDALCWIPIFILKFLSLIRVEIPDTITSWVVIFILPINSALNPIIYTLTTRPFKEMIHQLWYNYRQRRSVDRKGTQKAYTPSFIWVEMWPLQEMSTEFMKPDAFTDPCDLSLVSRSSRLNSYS
"level at time molar at 12 h ([1]; Sprague-Dawley, rat, plasma, rats, SC 3 mg/kg, read-out: plasma concentration after 12 h)","T1/2 (apparent terminal half-life) ([1]; male Sprague-Dawley rats, IV 1 mg/kg in PBS, plasma, LC-HRMS, non-compartmental analysis, mean of n = 3)","T1/2 (apparent terminal half-life) ([1]; male Sprague-Dawley rats, IV 1 mg/kg in PBS, plasma, LC-HRMS, non-compartmental analysis, mean of n = 3, listed as SA10SC_RLX)","CL ([1]; male Sprague-Dawley rats, plasma, LC-HRMS, animal 1)","CL ([1]; male Sprague-Dawley rats, plasma, LC-HRMS, animal 2)","CL ([1]; male Sprague-Dawley rats, plasma, LC-HRMS, animal 3)","AUXext ([1]; male Sprague-Dawley rats, plasma, animal 1)","AUXext ([1]; male Sprague-Dawley rats, plasma, animal 2)","AUXext ([1]; male Sprague-Dawley rats, plasma, animal 3)","Cmax ([1]; male Sprague-Dawley rats, SC 3 mg/kg in PBS, plasma, LC-HRMS, non-compartmental analysis, mean of n = 3)","Tmax ([1]; male Sprague-Dawley rats, SC 3 mg/kg in PBS, plasma, LC-HRMS, mean of n = 3)","F ([1]; male Sprague-Dawley rats, SC 3 mg/kg vs IV 1 mg/kg, mean of n = 3)","AUCext ([1]; male Sprague-Dawley rats, SC 3 mg/kg, plasma, mean of n = 3)","AUC ([1]; rat, male Sprague-Dawley rats, IV 1 mg/kg in PBS, plasma, LC-HRMS, non-compartmental analysis, mean of n = 3)","clearance ([1]; rat, male Sprague-Dawley rats, IV 1 mg/kg in PBS, plasma, LC-HRMS, non-compartmental analysis, mean of n = 3, read-out: CL (plasma clearance))","C0 ([1]; rat, male Sprague-Dawley rats, IV 1 mg/kg in PBS, plasma, LC-HRMS, non-compartmental analysis, mean of n = 3, read-out: Co)","Vd ([1]; rat, male Sprague-Dawley rats, IV 1 mg/kg in PBS, plasma, LC-HRMS, non-compartmental analysis, mean of n = 3, read-out: Vss)","AUC ([1]; rat, male Sprague-Dawley rats, SC 3 mg/kg in PBS, plasma, LC-HRMS, non-compartmental analysis, mean of n = 3)",Compound,duration of the heart rate effect (RXFP1)
~1000 nM,4 h,3.9 h,0.48 mL/min/kg,0.44 mL/min/kg,0.38 mL/min/kg,1.01%,1.01%,1.02%,1500 nM,8 h,74%,1.09%,9.57 µM·h,0.43 mL/min/kg,3200 nM,0.12 L/kg,21.2 µM·h,CCCCCCCCCCCCCCCCCC(=O)N[C@@H](CCC(=O)N[C@@H](CCC(=O)N[C@@H](CCC(=O)NCCOCCOCC(=O)NCCOCCOCC(=O)NCCOCCOCC(=O)NCCCC[C@H](NC(=O)[C@H](CCCCNC(C)=O)NC(=O)[C@H](CCCCN)NC(=O)[C@H](CCCNC(=N)N)NC(=O)C(C)(C)NC(=O)[C@H](CO)NC(=O)[C@H](Cc1c[nH]c2ccccc12)NC(=O)[C@@H](NC(=O)[C@H](CO)NC(=O)[C@H](CCCC)NC(=O)CNC(=O)[C@H](CCC(=O)O)NC(=O)C(C)(C)NC(=O)C(C)(C)NC(=O)[C@@H](NC(=O)[C@H](CCCCNC(C)=O)NC(=O)[C@H](C)NC(=O)[C@H](CCCNC(=N)N)NC(=O)[C@@H](NC(=O)[C@H](CCCCN)NC(=O)[C@H](CCC(=O)O)NC(=O)[C@H](CCCNC(=N)N)NC(=O)CNC(=O)[C@H](CCC(=O)O)NC(=O)[C@H](CC(C)C)NC(C)=O)C(C)C)[C@@H](C)CC)[C@@H](C)O)C(N)=O)C(=O)O)C(=O)O)C(=O)O [SA10SC-RLX] (Ac-LEGREKVRAK(Ac)I[Aib][Aib]EG[Nle]STWS[Aib]RKK(Ac)K([AEEA-AEEA-AEEA-γGlu-γGlu-γGlu-Stearoyl])-NH2),
,,,,,,,,,,,,,,,,,,relaxin,4 to 6 h
